In patent publication US20100160369A1, “S1P1 Agonists and Methods of Making And Using” (EXELIXIS, INC., priority 2008, published 2010):

These molecules were tested against S1P1 (Homo sapiens, UniProt P21453) (assay: CNG cAMP Assay (Assay 1)). Settings: footnote 1: Relative EC50 was measured, read-out: Assay 1 Relative EC50.
Type: cell-based
Parameters: host or cells: HEK293 cells expressing the CNG channel
Protocol: Frozen HEK293 cells expressing the CNG channel and S1P1 (BD Biosciences, San Jose, Calif.) were thawed and plated into the wells of a black, clear bottom, 384-well CellBind plate (Corning, Corning, N.Y.) at 14,000 cells per well. HEK293 cells expressing the CNG channel and CB1 (BD Biosciences) were cultured and plated under the same conditions. The cells were incubated for 16 h at 37° C. in complete DMEM medium (Invitrogen Carlsbad, Calif.) containing 10% FBS (HyClone Logan, Utah), 250 μg/mL geneticin (Invitrogen), and 1 μg/mL puromycin (Sigma-Aldrich, St. Louis, Mo.). A membrane potential dye (BD Biosciences) was added and the plates were incubated for 2-2.5 h at room temperature.
Test compounds were tested at maximum concentrations of 10 μM. Compounds were diluted in DMSO (10 concentration points, 3-fold each) and added to the assay plate at final DMSO concentrations of 1.8%. For each compound, there were duplicate assay plates and each assay plate had duplicate wells per concentration point. Test compounds were added to the cells in a DPBS solution containing 25 μM Ro 20-1724 (Sigma-Aldrich), 500 nM of the A2b receptor agonist NECA (Sigma-Aldrich) and 10 nM (EC95) of S1P (Avanti Alabaster, Ala.) and incubated for 90 min. The assay plate was read before compound addition (T0) and after the 90 min incubation (T90) using an EnVision plate reader (PerkinElmer, Waltham, Mass.) at an excitation wavelength of 350 nm and an emission wavelength of 590 nm. The T90/T0 ratio was determined for each concentration of the test compounds. The percent agonist activity was determined as [(test compound−DMSO alone control)/(NECA alone control−DMSO alone control)*100]. The percent activities were plotted against compound concentration to determine EC50 using XLFit (IDBS, Alameda, Calif.). The control used for calculating rEC50 in the S1P1 CNG agonist assay was DMSO.
Assay 1 is the CNG cAMP Assay as described in Biological Example 1. Assay 2a and 2b are the Tango™ β-arrestin Recruitment Assay in HEK293 and U2OS cells, respectively, as described in Biological Example 2. Assay 3a is the hS1P1R GTPγS Binding Assay as described in Biological Example 3. Assay 3b is the GTP-Eu Binding Assay as described in Biological Example 3. EC50's were measured unless otherwise noted. […] In the table, “nt” means the Compound was not tested and “no” means the compound was tested but had no measurable activity under the assay conditions employed.

Sequence of S1P1 (P21453 whole entry): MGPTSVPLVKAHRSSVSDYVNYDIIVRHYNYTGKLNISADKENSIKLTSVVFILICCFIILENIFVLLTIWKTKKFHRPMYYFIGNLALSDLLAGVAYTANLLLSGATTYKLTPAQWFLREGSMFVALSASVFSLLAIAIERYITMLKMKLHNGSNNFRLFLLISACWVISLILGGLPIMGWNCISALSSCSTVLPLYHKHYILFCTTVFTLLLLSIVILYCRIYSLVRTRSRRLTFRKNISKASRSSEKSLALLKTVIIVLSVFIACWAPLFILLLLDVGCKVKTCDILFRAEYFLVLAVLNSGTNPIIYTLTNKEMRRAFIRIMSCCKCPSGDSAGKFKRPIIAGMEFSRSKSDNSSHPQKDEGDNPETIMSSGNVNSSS

First: O=C(O)Cc1ccc(-c2noc(-c3cn4cc(C(F)(F)F)cc(Cl)c4n3)n2)c(Cl)c1 [Example 133, (3-chloro-4-{5-[8-chloro-6-(trifluoromethyl)imidazo[1,2-a]pyridin-2-yl]-1,2,4-oxadiazol-3-yl}phenyl)acetic acid]
Second: O=C(O)C1CN(Cc2ccc(-c3nc(-c4cn5cc(C(F)(F)F)cc(Cl)c5n4)no3)cc2)C1 [Example 231, 1-[(4-{3-[8-chloro-6-(trifluoromethyl)imidazo[1,2-a]pyridin-2-yl]-1,2,4-oxadiazol-5-yl}phenyl)methyl]azetidine-3-carboxylic acid]
The EC50 of the first is lower: 1000 to 5000 nM for the first, 5000 to 10000 nM for the second. The first is the more potent here.

First: CC(Oc1cc(Cl)c(-c2nc(-c3cn4cc(C(F)(F)F)cc(Cl)c4n3)no2)cc1F)C(=O)O (stereo not drawn) [Example 205, 2-[(5-chloro-4-{3-[8-chloro-6-(trifluoromethyl)imidazo[1,2-a]pyridin-2-yl]-1,2,4-oxadiazol-5-yl}-2-fluorophenyl)oxy]propanoic acid]
Second: Cc1cc(Cl)c2nc(-c3nc(-c4ccc(NS(C)(=O)=O)cc4Cl)no3)cn2c1 [Example 270, N-{3-chloro-4-[5-(8-chloro-6-methylimidazo[1,2-a]pyridin-2-yl)-1,2,4-oxadiazol-3-yl]phenyl}methanesulfonamide]
The EC50 of the first is lower: 100 to 500 nM for the first, 5000 to 10000 nM for the second. The first is the more potent here.

Same assay, conditions: read-out: Assay 1 EC50

NC(=O)Cn1ccc2c(-c3noc(-c4cn5cc(C(F)(F)F)cc(Cl)c5n4)n3)cccc21 [Example 174, 2-(4-{5-[8-chloro-6-(trifluoromethyl)imidazo[1,2-a]pyridin-2-yl]-1,2,4-oxadiazol-3-yl}-1H-indol-1-yl)acetamide] and CC(CC(N)=O)c1ccc(-c2noc(-c3cn4cc(C(F)(F)F)cc(Cl)c4n3)n2)c(Cl)c1 (stereo not drawn) [Example 170, 3-(3-chloro-4-{5-[8-chloro-6-(trifluoromethyl)imidazo[1,2-a]pyridin-2-yl]-1,2,4-oxadiazol-3-yl}phenyl)butanamide] cannot be ordered by EC50: no more than 100 nM for the first, no more than 100 nM for the second.

CS(=O)(=O)Nc1ccc(-c2nnc(-c3cn4cc(C(F)(F)F)cc(Cl)c4n3)o2)c(Cl)c1 [Example 218, N-(3-chloro-4-{5-[8-chloro-6-(trifluoromethyl)imidazo[1,2-a]pyridin-2-yl]-1,3,4-oxadiazol-2-yl}phenyl)methanesulfonamide] and CS(=O)(=O)Nc1cc(Cl)c(-c2noc(-c3cn4cc(C(F)(F)F)cc(Cl)c4n3)n2)cc1F [Example 111, N-(5-chloro-4-{5-[8-chloro-6-(trifluoromethyl)imidazo[1,2-a]pyridin-2-yl]-1,2,4-oxadiazol-3-yl}-2-fluorophenyl)methanesulfonamide] cannot be ordered by EC50: 100 to 500 nM for the first, no more than 100 nM for the second.

Compared with CS(=O)(=O)c1cc(Cl)c2nc(-c3nc(-c4cc(F)c(CCC(=O)O)cc4Cl)no3)cn2c1 [Example 148, 3-(5-chloro-4-{5-[8-chloro-6-(methylsulfonyl)imidazo[1,2-a]pyridin-2-yl]-1,2,4-oxadiazol-3-yl}-2-fluorophenyl)propanoic acid], O=C(O)CNCc1ccc(-c2noc(-c3cn4cc(C(F)(F)F)cc(Cl)c4n3)n2)c(Cl)c1 [Example 120, N-[(3-chloro-4-{5-[8-chloro-6-(trifluoromethyl)imidazo[1,2-a]pyridin-2-yl]-1,2,4-oxadiazol-3-yl}phenyl)methyl]glycine] is higher in EC50: no more than 100 nM for the first, 500 to 1000 nM for the second. The first is the more potent here.

O=C(O)C1CN(Cc2ccc(-c3noc(-c4cn5cc(C(F)(F)F)cc(Cl)c5n4)n3)cc2Cl)C1 [Example 127, 1-[(2-chloro-4-{5-[8-chloro-6-(trifluoromethyl)imidazo[1,2-a]pyridin-2-yl]-1,2,4-oxadiazol-3-yl}phenyl)methyl]azetidine-3-carboxylic acid] and NC(CC(=O)O)c1ccc(-c2noc(-c3cn4cc(C(F)(F)F)cc(Cl)c4n3)n2)c(Cl)c1 (stereo not drawn) [Example 193, 3-amino-3-(3-chloro-4-{5-[8-chloro-6-(trifluoromethyl)imidazo[1,2-a]pyridin-2-yl]-1,2,4-oxadiazol-3-yl}phenyl)propanoic acid] fall in the same range of EC50: 100 to 500 nM for the first, 100 to 500 nM for the second.

N[C@@H](COc1ccc(-c2noc(-c3cn4cc(C(F)(F)F)cc(Cl)c4n3)n2)c(Cl)c1)C(=O)O [Example 188, O-(3-chloro-4-{5-[8-chloro-6-(trifluoromethyl)imidazo[1,2-a]pyridin-2-yl]-1,2,4-oxadiazol-3-yl}phenyl)serine] and OCCCOc1ccc(-c2noc(-c3cn4cc(C(F)(F)F)cc(Cl)c4n3)n2)c(Cl)c1 [Example 199, 3-[(3-chloro-4-{5-[8-chloro-6-(trifluoromethyl)imidazo[1,2-a]pyridin-2-yl]-1,2,4-oxadiazol-3-yl}phenyl)oxy]propan-1-ol] fall in the same range of EC50: 100 to 500 nM for the first, 100 to 500 nM for the second.

Compared with O=C(O)[C@@H]1C[C@H](Oc2ccc(-c3noc(-c4cn5cc(C(F)(F)F)cc(Cl)c5n4)n3)c(Cl)c2)CN1 [Example 276, (4S)-4-[(3-chloro-4-{5-[8-chloro-6-(trifluoromethyl)imidazo[1,2-a]pyridin-2-yl]-1,2,4-oxadiazol-3-yl}phenyl)oxy]-L-proline], O=c1nc(-c2ccc(-c3noc(-c4cn5cc(C(F)(F)F)cc(Cl)c5n4)n3)c(Cl)c2)[nH]o1 [Example 134, 3-(3-chloro-4-{5-[8-chloro-6-(trifluoromethyl)imidazo[1,2-a]pyridin-2-yl]-1,2,4-oxadiazol-3-yl}phenyl)-1,2,4-oxadiazol-5(2H)-one] is higher in EC50: no more than 100 nM for the first, 500 to 1000 nM for the second. The first is the more potent here.

Compared with Cc1cc(-c2noc(-c3cn4cc(C(F)(F)F)cc(Cl)c4n3)n2)ccc1NS(C)(=O)=O [Example 119, N-(4-{5-[8-chloro-6-(trifluoromethyl)imidazo[1,2-a]pyridin-2-yl]-1,2,4-oxadiazol-3-yl}-2-methylphenyl)methanesulfonamide], FC(F)(F)c1cccc(-c2noc(-c3cn4cc(C(F)(F)F)cc(Cl)c4n3)n2)c1 [Example 143, 8-chloro-6-(trifluoromethyl)-2-{3-[3-(trifluoromethyl)phenyl]-1,2,4-oxadiazol-5-yl}imidazo[1,2-a]pyridine] is higher in EC50: no more than 100 nM for the first, 500 to 1000 nM for the second.

Fc1cccc(F)c1-c1nc(-c2cn3cc(C(F)(F)F)cc(Cl)c3n2)no1 [Example 228, 8-chloro-2-[5-(2,6-difluorophenyl)-1,2,4-oxadiazol-3-yl]-6-(trifluoromethyl)imidazo[1,2-a]pyridine] and Fc1ccc(-c2noc(-c3cn4cc(C(F)(F)F)cc(Br)c4n3)n2)c(Cl)c1 [Example 281, 8-bromo-2-[3-(2-chloro-4-fluorophenyl)-1,2,4-oxadiazol-5-yl]-6-(trifluoromethyl)imidazo[1,2-a]pyridine] fall in the same range of EC50: 100 to 500 nM for the first, 100 to 500 nM for the second.

First: FC(F)(F)c1cc(Cl)c2nc(-c3nc(-c4cnccc4C(F)(F)F)no3)cn2c1 [Example 290, 8-chloro-6-(trifluoromethyl)-2-{3-[4-(trifluoromethyl)pyridin-3-yl]-1,2,4-oxadiazol-5-yl}imidazo[1,2-a]pyridine]
Second: CC(CC(=O)O)c1ccc(-c2noc(-c3cn4cc(C(F)(F)F)cc(Cl)c4n3)n2)c(F)c1 (stereo not drawn) [Example 186, 3-(4-{5-[8-chloro-6-(trifluoromethyl)imidazo[1,2-a]pyridin-2-yl]-1,2,4-oxadiazol-3-yl}-3-fluorophenyl)butanoic acid]
The EC50 of the first is higher: 1000 to 5000 nM for the first, 100 to 500 nM for the second.

O=C(O)CCc1ccc(-c2noc(-c3cn4cc(C(F)(F)F)cc(Cl)c4n3)n2)cc1 [Entry 22] showed an EC50 of no more than 100 nM.

Same assay, conditions: relative EC50 was measured (footnote 1), read-out: Assay 1 Relative EC50

O=C(O)C1CC1c1ccc(-c2noc(-c3cn4cc(C(F)(F)F)cc(Cl)c4n3)n2)cc1 (stereo not drawn) [Entry 75] showed an EC50 of 500 to 1000 nM.
